Results reported in ChEMBL document CHEMBL1145498, “A systematic interaction map of validated kinase inhibitors with Ser/Thr kinases” (Proc Natl Acad Sci U S A, 2007).

Columns and labels:
[1] = biological target: Dual specificity protein kinase CLK2 (Homo sapiens) (UniProt P49760)
[2] = biological target: T1, Serine/threonine-protein kinase PLK4 (Homo sapiens) (UniProt O00444)
T1 sequence (whole entry): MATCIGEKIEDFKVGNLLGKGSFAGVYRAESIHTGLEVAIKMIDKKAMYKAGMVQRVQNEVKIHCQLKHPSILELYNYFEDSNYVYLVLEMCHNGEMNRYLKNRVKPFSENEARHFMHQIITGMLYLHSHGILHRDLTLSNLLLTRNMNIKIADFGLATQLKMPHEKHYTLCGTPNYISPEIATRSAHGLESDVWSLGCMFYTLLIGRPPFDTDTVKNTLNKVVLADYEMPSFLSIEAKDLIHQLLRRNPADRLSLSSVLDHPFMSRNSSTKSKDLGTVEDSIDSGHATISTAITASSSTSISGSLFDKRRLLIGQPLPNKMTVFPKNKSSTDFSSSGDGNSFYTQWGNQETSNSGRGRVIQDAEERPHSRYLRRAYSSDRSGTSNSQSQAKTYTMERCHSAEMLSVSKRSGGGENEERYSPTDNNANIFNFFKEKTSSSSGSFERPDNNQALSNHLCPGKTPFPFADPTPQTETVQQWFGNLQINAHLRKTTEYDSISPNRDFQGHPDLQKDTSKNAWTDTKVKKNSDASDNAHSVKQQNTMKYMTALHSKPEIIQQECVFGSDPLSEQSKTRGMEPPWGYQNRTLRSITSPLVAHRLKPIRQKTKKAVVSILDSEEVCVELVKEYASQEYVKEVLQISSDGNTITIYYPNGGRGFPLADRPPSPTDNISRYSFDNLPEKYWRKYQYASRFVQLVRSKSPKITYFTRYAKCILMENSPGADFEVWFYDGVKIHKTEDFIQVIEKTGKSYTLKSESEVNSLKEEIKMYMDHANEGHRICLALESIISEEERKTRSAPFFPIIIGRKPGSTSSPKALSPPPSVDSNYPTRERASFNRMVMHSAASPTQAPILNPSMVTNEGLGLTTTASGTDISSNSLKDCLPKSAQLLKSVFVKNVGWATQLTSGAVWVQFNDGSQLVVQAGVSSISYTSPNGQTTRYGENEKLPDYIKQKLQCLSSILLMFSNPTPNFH

[3] = biological target: Serine/threonine-protein kinase Nek6 (Homo sapiens) (UniProt Q9HC98)
Chain of Serine/threonine-protein kinase Nek6 (Homo sapiens) (Q9HC98 whole entry): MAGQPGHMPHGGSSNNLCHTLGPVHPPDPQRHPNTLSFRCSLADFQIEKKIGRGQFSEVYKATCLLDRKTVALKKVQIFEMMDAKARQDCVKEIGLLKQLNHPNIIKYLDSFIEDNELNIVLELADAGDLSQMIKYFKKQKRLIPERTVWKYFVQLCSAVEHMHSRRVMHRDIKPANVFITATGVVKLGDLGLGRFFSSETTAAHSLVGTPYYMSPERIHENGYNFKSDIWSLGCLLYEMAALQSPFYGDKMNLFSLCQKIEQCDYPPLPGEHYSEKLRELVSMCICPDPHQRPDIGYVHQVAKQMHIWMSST

[4] = biological target: cAMP-dependent protein kinase catalytic subunit alpha (Homo sapiens) (UniProt P17612)
[5] = biological target: Mitogen-activated protein kinase 11 (Homo sapiens, UniProt Q15759)
Chain of Mitogen-activated protein kinase 11 (Q15759 whole entry): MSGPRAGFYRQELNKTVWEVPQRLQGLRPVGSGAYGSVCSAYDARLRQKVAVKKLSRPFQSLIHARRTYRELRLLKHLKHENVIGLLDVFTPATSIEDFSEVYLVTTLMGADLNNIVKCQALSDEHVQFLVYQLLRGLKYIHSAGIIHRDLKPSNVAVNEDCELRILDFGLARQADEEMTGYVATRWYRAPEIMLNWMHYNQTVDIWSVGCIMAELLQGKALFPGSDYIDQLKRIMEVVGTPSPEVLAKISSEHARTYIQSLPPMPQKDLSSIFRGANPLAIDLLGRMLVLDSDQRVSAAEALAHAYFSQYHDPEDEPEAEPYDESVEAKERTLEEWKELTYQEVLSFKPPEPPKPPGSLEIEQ

[6] = biological target: T2, 3-phosphoinositide-dependent protein kinase 1 (Homo sapiens) (UniProt O15530)
T2 sequence (whole entry): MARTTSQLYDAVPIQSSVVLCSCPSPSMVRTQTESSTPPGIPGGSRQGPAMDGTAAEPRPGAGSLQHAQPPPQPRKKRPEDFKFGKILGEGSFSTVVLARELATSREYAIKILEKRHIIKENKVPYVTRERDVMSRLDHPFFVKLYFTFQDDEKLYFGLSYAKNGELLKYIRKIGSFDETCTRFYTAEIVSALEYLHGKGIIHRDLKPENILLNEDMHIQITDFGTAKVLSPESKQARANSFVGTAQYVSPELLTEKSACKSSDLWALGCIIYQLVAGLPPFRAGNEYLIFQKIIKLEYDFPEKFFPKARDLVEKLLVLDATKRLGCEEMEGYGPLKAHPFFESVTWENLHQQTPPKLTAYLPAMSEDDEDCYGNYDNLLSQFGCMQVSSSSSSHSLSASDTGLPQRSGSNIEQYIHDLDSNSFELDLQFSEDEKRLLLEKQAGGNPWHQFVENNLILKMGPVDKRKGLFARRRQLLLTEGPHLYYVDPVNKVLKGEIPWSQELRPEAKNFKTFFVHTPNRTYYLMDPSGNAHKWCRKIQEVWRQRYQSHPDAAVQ

[7] = biological target: T3, Myotonin-protein kinase (Homo sapiens) (UniProt Q09013)
T3 sequence (whole entry): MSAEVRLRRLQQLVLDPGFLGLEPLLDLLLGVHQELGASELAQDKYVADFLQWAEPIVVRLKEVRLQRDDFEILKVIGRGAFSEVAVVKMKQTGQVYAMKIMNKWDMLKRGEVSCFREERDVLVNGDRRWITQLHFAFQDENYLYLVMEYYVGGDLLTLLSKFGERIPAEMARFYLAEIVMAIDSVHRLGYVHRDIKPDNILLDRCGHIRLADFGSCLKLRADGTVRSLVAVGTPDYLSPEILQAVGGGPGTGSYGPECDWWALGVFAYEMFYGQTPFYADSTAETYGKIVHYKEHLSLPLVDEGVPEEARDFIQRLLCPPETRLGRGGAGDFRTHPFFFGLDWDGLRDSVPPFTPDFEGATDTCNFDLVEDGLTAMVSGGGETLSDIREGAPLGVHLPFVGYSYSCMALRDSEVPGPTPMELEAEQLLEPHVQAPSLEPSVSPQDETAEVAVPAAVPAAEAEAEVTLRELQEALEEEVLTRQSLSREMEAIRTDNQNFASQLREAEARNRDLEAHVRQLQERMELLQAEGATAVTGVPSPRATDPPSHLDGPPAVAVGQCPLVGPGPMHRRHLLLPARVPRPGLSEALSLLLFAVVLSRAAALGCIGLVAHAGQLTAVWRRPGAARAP

[8] = biological target: Serine/threonine-protein kinase 26 (Homo sapiens) (UniProt Q9P289)
Chain of Serine/threonine-protein kinase 26 (Homo sapiens) (Q9P289 2-416 limits assumed): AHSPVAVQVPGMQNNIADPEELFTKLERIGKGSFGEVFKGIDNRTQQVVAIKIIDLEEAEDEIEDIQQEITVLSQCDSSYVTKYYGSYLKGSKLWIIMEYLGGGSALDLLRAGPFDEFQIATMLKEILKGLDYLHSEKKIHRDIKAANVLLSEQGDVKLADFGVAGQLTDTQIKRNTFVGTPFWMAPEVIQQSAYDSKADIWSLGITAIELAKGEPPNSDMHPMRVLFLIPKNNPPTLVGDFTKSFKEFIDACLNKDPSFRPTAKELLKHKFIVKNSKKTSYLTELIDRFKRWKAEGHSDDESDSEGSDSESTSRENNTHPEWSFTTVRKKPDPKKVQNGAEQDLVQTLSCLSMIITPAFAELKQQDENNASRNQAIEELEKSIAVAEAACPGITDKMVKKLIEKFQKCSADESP

[9] = biological target: T4, Serine/threonine-protein kinase 17A (Homo sapiens) (UniProt Q9UEE5)
T4 sequence (whole entry): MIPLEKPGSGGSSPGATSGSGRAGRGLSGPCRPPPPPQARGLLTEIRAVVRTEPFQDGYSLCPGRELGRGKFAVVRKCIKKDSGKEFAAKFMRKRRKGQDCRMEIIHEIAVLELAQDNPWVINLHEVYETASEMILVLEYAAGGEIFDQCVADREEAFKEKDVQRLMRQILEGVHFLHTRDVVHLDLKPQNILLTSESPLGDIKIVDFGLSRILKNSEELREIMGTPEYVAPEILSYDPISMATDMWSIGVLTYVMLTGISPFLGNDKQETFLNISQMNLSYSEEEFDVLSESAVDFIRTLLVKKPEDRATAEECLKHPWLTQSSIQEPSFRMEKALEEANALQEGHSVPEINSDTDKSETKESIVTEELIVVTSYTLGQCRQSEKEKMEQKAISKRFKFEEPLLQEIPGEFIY

[10] = biological target: Serine/threonine-protein kinase PAK 6 (Homo sapiens) (UniProt Q9NQU5)
Chain of Serine/threonine-protein kinase PAK 6 (Homo sapiens) (Q9NQU5 whole entry, looked up): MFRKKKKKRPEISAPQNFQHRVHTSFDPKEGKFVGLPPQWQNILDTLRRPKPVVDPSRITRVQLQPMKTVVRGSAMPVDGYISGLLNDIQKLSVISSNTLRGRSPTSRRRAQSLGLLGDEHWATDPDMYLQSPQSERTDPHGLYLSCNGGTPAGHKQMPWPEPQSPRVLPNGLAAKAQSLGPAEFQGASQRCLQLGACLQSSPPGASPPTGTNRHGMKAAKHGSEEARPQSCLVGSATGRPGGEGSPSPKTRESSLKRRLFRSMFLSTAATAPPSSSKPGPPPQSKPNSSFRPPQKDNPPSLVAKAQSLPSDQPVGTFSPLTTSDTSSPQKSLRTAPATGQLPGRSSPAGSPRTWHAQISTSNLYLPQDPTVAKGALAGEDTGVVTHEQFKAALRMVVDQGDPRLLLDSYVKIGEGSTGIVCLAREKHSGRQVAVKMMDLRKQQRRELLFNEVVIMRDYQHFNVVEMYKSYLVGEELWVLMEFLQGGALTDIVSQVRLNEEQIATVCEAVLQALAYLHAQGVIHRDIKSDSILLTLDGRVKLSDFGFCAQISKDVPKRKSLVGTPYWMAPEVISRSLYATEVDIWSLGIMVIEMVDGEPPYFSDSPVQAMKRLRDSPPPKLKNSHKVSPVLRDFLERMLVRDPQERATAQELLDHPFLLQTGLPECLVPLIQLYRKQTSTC

[11] = biological target: Serine/threonine-protein kinase VRK2 (Homo sapiens) (UniProt Q86Y07)
Chain of Serine/threonine-protein kinase VRK2 (Homo sapiens) (Q86Y07 whole entry): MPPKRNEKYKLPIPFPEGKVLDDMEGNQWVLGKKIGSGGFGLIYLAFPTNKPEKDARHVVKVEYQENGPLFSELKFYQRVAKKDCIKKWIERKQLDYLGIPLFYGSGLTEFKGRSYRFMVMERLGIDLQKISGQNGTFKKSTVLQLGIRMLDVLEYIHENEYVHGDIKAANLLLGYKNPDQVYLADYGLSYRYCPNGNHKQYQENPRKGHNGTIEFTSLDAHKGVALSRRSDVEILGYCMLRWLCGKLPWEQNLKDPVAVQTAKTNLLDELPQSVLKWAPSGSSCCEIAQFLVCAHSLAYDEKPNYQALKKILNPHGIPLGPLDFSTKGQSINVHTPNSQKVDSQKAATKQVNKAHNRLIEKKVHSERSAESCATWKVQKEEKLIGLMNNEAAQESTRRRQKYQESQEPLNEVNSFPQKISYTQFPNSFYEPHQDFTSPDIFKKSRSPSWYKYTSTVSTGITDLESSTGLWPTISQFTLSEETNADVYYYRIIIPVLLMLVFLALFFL

Chain of Dual specificity protein kinase CLK2 (Homo sapiens) (P49760 whole entry, looked up): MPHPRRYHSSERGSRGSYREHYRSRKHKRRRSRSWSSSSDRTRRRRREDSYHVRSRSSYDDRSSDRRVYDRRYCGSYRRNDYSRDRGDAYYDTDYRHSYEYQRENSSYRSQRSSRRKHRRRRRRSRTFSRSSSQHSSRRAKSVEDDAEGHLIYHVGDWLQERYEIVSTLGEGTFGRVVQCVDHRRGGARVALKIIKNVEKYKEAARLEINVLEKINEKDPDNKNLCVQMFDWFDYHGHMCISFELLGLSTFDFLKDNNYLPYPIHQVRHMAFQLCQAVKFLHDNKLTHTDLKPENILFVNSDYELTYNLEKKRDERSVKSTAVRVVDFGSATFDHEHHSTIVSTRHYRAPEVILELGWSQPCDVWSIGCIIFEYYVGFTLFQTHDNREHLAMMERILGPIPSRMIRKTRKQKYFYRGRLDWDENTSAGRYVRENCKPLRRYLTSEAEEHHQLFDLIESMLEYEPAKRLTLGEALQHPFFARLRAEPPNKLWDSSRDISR

Row | SMILES | ΔTm [1] [°C] | ΔTm [2] [°C] | ΔTm [3] [°C] | ΔTm [4] [°C] | ΔTm [5] [°C] | ΔTm [6] [°C] | ΔTm [7] [°C] | ΔTm [8] [°C] | ΔTm [9] [°C] | ΔTm [10] [°C] | ΔTm [11] [°C]
1 | Oc1cc(O)cc(/C=C/c2ccc(O)c(O)c2)c1 [PICEATANNOL] | 0.6 | 1.1 | 0.6 | 2.7 | 0.8 | -0.4 | -0.5 | 1 | 0.3 | 0.5 | -0.4
2 | O=C1Nc2ccc(S(=O)(=O)O)cc2/C1=C1/Nc2ccccc2/C1=N\O | 3.7 | 10.4 | 0.8 | 1.2 | 1.4 | 0.7 | 1.8 | 0.5 | 9.8 | 3.2 | 4
3 | O=c1cc(N2CCOCC2)oc2c1ccc1ccccc12 | 0.8 | 0.2 | -0.2 | 0.2 | 1.1 | 0 | 0.2 | 0.2 | 0.6 | -0.3 | -0.1
4 | CCOc1cc2ncnc(Nc3cccc(Br)c3)c2cc1OCC | 1 | 3.8 | 0.7 | 0.8 | 2.2 | -0.9 | 0.5 | 0.8 | 2.9 | 0.8 | 0.6
5 | COc1ccc2c(c1)/C(=C/c1cnc[nH]1)C(=O)N2 [SU-9516] | 3.2 | 4.9 | 0.1 | 1 | 0.8 | 0.2 | 0.8 | 2 | 9.8 | 2.3 | 0.7
6 | Nc1n[nH]c2nc3ccccc3nc12 [QUINOXALINE1] | 1.4 | 1.5 | -0.3 | 0.6 | 1 | 0.5 | -0.1 | 0.7 | 3.5 | 0.6 | 0.7
7 | Cc1nc2sccn2c(=O)c1CCN1CCC(=C(c2ccccc2)c2ccc(F)cc2)CC1 | 2.8 | 2.8 | 0.1 | 1.6 | -0.7 | -0.8 | 0.1 | 0.4 | 8.8 | 0.8 | 0.2
8 | Nc1cccc(-c2cc3c(Oc4cccc(O)c4)ncnc3[nH]2)c1 | 0.4 | 0.8 | -1.3 | -0.6 | 5.4 | -0.1 | 2.5 | 2.2 | 0.9 | 1.3 | 0.5
9 | COc1ccc(S(=O)(=O)N(CCO)c2ccccc2CN(C)C/C=C/c2ccc(Cl)cc2)cc1 | -0.3 | 1 | 0.3 | -4.1 | 0.2 | 0.4 | -0.7 | -0.1 | 0.1 | -0.8 | -0.3
10 | NCCNS(=O)(=O)c1cccc2c(Cl)cccc12 | 0.3 | 0.6 | -0.4 | 2.5 | -0.2 | -0.2 | -1.1 | -0.1 | 1 | 0.2 | 0.1
11 | CCOc1ccc(/C=C2/SC(=O)N(CCN)C2=O)cc1 [HIAZOLIDINEDIONE1] | 0.2 | 0.3 | -1.7 | 0.5 | 0.5 | -0.3 | 1.4 | -0.1 | -0.6 | -0.5 | 0.1
12 | NC(=O)c1ccc2[nH]c(-c3ccc(Oc4ccc(Cl)cc4)cc3)nc2c1 | -0.4 | 1.4 | 0.4 | 0.4 | -0.4 | -0.5 | 1.3 | 1.3 | 0.7 | -0.8 | 0.5
13 | C=CNC#N | 0.6 | 0.1 | -0.2 | 1.6 | -0.1 | -0.1 | 1.3 | 1.5 | 0.7 | 0.5 | 0.2
14 | COc1ccc2c(c[n+](C)c3c4cc5c(cc4ccc23)OCO5)c1OC [CHELERYTHRINE CHLORIDE] | -0.2 | -3.1 | -2.5 | 1.4 | 0.6 | -0.7 | 1.7 | -4.2 | -0.8 | -3.3 | 0
15 | CCOC(=O)c1cnc2oc3ccc(O)cc3c2c1-c1ccccc1 | 3.5 | 2.8 | -0.5 | 1.3 | -0.6 | -0.5 | -0.4 | 0 | 2 | 0.3 | 0.3
16 | NS(=O)(=O)c1ccc(Nc2nc(OCC3CCCCC3)c3nc[nH]c3n2)cc1 | 2.7 | 1.1 | 0.1 | -0.1 | 0.6 | -0.1 | 3.2 | 5.7 | 1.8 | 1.7 | 0.6
